Laboratory results from patent US20130096170A1 (priority 2011, published 2013).
“Also recorded” adds a separate entry of the source.

Test system: prenatal Cynomolgus monkey brains (frontal cortex)
[1] = Group 2, 20 mg/kg im + 20-50 mg/kg/hr, 5 fetal brains examined

Compound: CNC1(c2ccccc2Cl)CCCCC1=O (centres unmarked) [ketamine]
- Severity scoring of neuroapoptotic lesions, Activated caspase 3 [1]: 3.5 ± 0.7
- Severity scoring of neuroapoptotic lesions, HE [1]: 1.9 ± 1.2
- Severity scoring of neuroapoptotic lesions, Silver [1]: 2.0 ± 0.8
- Severity scoring of neuroapoptotic lesions, TUNEL [1]: 2.9 ± 1.1
- neuroapoptotic lesions / damaged and apoptotic cells in fetal frontal cortex (Group 2: 20 mg/kg IM+20-50 mg/kg/hr ketamine to pregnant monkeys, H&E, silver, TUNEL, AC3): abundant neuroapoptotic lesions; also recorded: moderate to large number of damaged and apoptotic cells; also recorded: marked neuroapoptosis and cellular damage with necrosis
